Measurements reported in patent US20120149775A1, “METHODS FOR PREVENTING AND IMPROVING SKIN ELASTIC PROPERTY LOSS” (SHISEIDO COMPANY, LTD., priority 2010, published 2012).

Columns and labels:
Format in all cases: cell-based
[1] = test system: mouse 3T3-L1 cell; experiment: Mouse fibroblast proliferation (alamar Blue); conditions: 48 hours
Protocol: The cell employed was a mouse 3T3-L1 cell. This cell was inoculated. at 3×10^4 cells/mL to a commercially available 24-well culture plate (353047, FALCON, Becton, Dickinson and Company Japan), where it was cultured in a commercially available cell culture medium (D-MEM, 11885084, GIBCO, Life Technologies Japan Ltd.) supplemented with 10% bovine serum (16010159, GIBCO, Life Technologies Japan Ltd.). The cell was cultured for about 6 hours in 5% CO2 and saturated water vapor atmosphere at 37° C. Thereafter, the culture medium for culturing the mouse fibroblast was switched to a medium which was the above-mentioned cell culture medium supplemented with 0.5% bovine serum (hereinafter referred to as “mouse fibroblast proliferation evaluation medium”), where the mouse fibroblast was cultured for 12 hours in 5% CO2 and saturated water vapor atmosphere at 37° C. When investigating the effects of saturated and unsaturated fatty acids on the proliferation of the fibroblast, 5 μM and 10 μM palmitic acid (S-33, Wako Pure Chemical Industries, Ltd.), 5 μM and 10 μM oleic acid (07501, Sigma Aldrich Japan K.K.) or 1 μM, 3 μM and 10 μM stearic acid ([…], Sigma Aldrich Japan. K.K.) was added after 12 hours to the mouse fibroblast proliferation evaluation medium), and the fibroblast was cultured for 48 hours in 5% CO2 and saturated water vapor atmosphere at 37° C. As a control, the cell was cultured in a culture medium without these saturated fatty acids and unsaturated fatty acid. […] The cell proliferation rate (%) was calculated as a percentage of the quotient obtained by dividing the fluorescent intensity of the alamar Blue under each experiment condition by the fluorescent intensity in the control group supplemented with no saturated or unsaturated fatty acids.

[2] = test system: type I collagen α chain gene expression; experiment: Type I collagen α chain gene expression in mouse fibroblast (real-time PCR); conditions: for suppressive effect on the gene expression of type I collagen α chain: data not shown
Protocol: (§1) The cell culture and the addition of palmitic acid were conducted similarly to Example 1. The mouse fibroblast was inoculated to and incubated in a commercially available 12-well culture plate (353043, FALCON, Becton, Dickinson and Company Japan) at 3×10^4 cells/mL. The culture medium was removed using an aspirator, and each well was washed twice with each 2 ml of PBS. An RNA was extracted from each cell in each well using an RNeasy Protect Kit (74104, Qiagen) according to Manufacturer's instructions. A cDNA was produced according to a standard method and used in a real-time PCR. This real-time PCR employed LightCycler (registered trademark) FastStart DNA Master^PLUS SYBR Green I (Catalog No. 03 515 885 001, Roche Diagnostic K.K.). For amplifying type I collagen α chain, elastin, matrix metalloproteinase 13 and 28S rRNA genes, the forward and reverse primers of SEQ ID NO: 1 and 2, SEQ ID NO: 3 and 4, SEQ ID NO: 5 and 6 and SEQ ID NO: 7 and 8, respectively, were employed. The PCR was conducted under a reaction condition involving 1 cycle of 95° C. for 10 minutes and 35 cycles of 95° C. for 15 seconds, 60° C. for 5 seconds and 72° C. for 5 seconds. The expression levels of type I collagen α chain, elastin and matrix metalloproteinase 13 gene were analyzed by using LightCycler Software Ver. 3.5 (Roche Diagnostic K.K.) and normalized on the basis of the expression level of 28S rRNA. The gene expressions level of the type I collagen α chain, elastin and matrix metalloproteinase 13 were calculated as percentages of the quotients obtained by dividing the gene expression rates (%) under each experimental condition by the gene expression levels in the control groups containing no palmitic acid.

[3] = test system: elastin gene expression; experiment: Elastin gene expression in mouse fibroblast (real-time PCR); conditions: for suppressive effect on the gene expression of elastin: data not shown
Protocol: as §1

[4] = test system: matrix metalloproteinase 13 gene expression; experiment: Matrix metalloproteinase 13 gene expression in mouse fibroblast (real-time PCR); conditions: for promotive effect on the gene expression of matrix metalloproteinase 13: data not shown
Protocol: as §1

[5] = test system: human fibroblast; experiment: Human fibroblast proliferation (alamar Blue); conditions: 5 μM to 30 μM, dependent on concentration (FIG. 7)
Protocol: Thereafter, alamar Blue (Trade mark, DAL1025, Invitrogen, Life Technologies Japan Ltd.) was added to the culture medium at a final concentration of 10%, and its supernatant was examined for the fluorescent intensity 2 hours later with an excitation wavelength of 544 nm and a fluorescent intensity of 590 nm in accordance with the manufacture's instruction. The cell proliferation rate (%) was calculated as a percentage of the quotient obtained by dividing the fluorescent intensity of the alamar Blue under each experiment condition by the fluorescent intensity in the control group supplemented with no saturated or unsaturated fatty acids. The cell culture, the addition of palmitic acid and the determination of the % of proliferation of the fibroblast were conducted similarly to Example 1. The human fibroblast (CC-2509, Lonza Japan Ltd.) was incubated for 6 hours in a commercially available cell culture medium (D-MEM, 11885084, GIBCO, Life Technologies Japan Ltd.) supplemented with 10% of fetal bovine serum (FBS) (Biowest). Thereafter, the culture medium for incubating the human fibroblast was switched to the cell culture medium supplemented with 0.5% of fetal bovine serum (hereinafter referred to as “human fibroblast proliferation evaluation medium”) and the human fibroblast was incubated at 37° C. and 5% CO2 under a saturated water vapor atmosphere for 12 hours. […]

[6] = test system: matrix metalloproteinase 1 gene expression; experiment: Matrix metalloproteinase 1 gene expression in human fibroblast (real-time PCR); conditions: 10 μM and 30 μM, dependent on concentration (FIG. 10)
Protocol: (§2) The culture medium was removed using an aspirator, and each well was washed twice with each 2 ml of PBS. An RNA was extracted from each cell in each well using an RNeasy Protect Kit (74104, Qiagen) according to Manufacturer's instructions. A cDNA was produced according to a standard method and used in a real-time PCR. This real-time PCR employed LightCycler (registered trademark) FastStart DNA Master^PLUS SYBR Green I (Catalog No. 03 515 885 001, Roche Diagnostic K.K.). […] The expression levels of type I collagen α chain, elastin and matrix metalloproteinase 13 gene were analyzed by using LightCycler Software Ver. […] The gene expressions level of the type I collagen α chain, elastin and matrix metalloproteinase 13 were calculated as percentages of the quotients obtained by dividing the gene expression rates (%) under each experimental condition by the gene expression levels in the control groups containing no palmitic acid. […] The quantification of gene expression was conducted similarly to Example 2. […] The % gene expressions of the type I collagen α chain, elastin and matrix metalloproteinase 1 were calculated as percentages of the quotients obtained by dividing the gene expression levels under each experimental condition by the gene expression levels in the control groups containing no palmitic acid.

[7] = test system: elastin gene expression; experiment: Elastin gene expression in human fibroblast (real-time PCR); conditions: 3 μM to 30 μM, dependent on concentration (FIG. 9)
Protocol: as §2

[8] = test system: mouse fibroblast; experiment: Effect of EPA and palmitic acid on fibroblast proliferation (alamar Blue); conditions: palmitic acid at 10 μM alone (FIG. 11)
Protocol: The cell employed was a mouse 3T3-L1 cell. This cell was inoculated. at 3×10^4 cells/mL to a commercially available 24-well culture plate (353047, FALCON, Becton, Dickinson and Company Japan), where it was cultured in a commercially available cell culture medium (D-MEM, 11885084, GIBCO, Life Technologies Japan Ltd.) supplemented with 10% bovine serum (16010159, GIBCO, Life Technologies Japan Ltd.). The cell was cultured for about 6 hours in 5% CO2 and saturated water vapor atmosphere at 37° C. Thereafter, the culture medium for culturing the mouse fibroblast was switched to a medium which was the above-mentioned cell culture medium supplemented with 0.5% bovine serum (hereinafter referred to as “mouse fibroblast proliferation evaluation medium”), where the mouse fibroblast was cultured for 12 hours in 5% CO2 and saturated water vapor atmosphere at 37° C. […] The cell proliferation rate (%) was calculated as a percentage of the quotient obtained by dividing the fluorescent intensity of the alamar Blue under each experiment condition by the fluorescent intensity in the control group supplemented with no saturated or unsaturated fatty acids. […]

[9] = test system: type I collagen α chain gene expression; experiment: Type I collagen α chain gene expression in human fibroblast (real-time PCR); conditions: 10 μM and 30 μM, dependent on concentration (FIG. 8)
Protocol: as §2

| SMILES | cell proliferation ([1]; 1 μM to 10 μM, vs control (FIG. 3)) | suppressive effect on the gene expression of type I collagen α chain [2] | suppressive effect on the gene expression of elastin [3] | promotive effect on the gene expression of matrix metalloproteinase 13 [4] | cell proliferation ([1]; 5 μM and 10 μM, vs control (FIG. 2)) | cell proliferation ([1]; 10 μM, vs control (FIG. 1)) | cell proliferation [5] | type I collagen α chain gene expression ([2]; 10 μM, vs control (FIG. 4)) | matrix metalloproteinase 1 gene expression [6] | elastin gene expression ([3]; 10 μM, vs control (FIG. 5)) | matrix metalloproteinase 13 gene expression ([4]; 10 μM, vs control (FIG. 6)) | elastin gene expression [7] | cell proliferation [8] | type I collagen α chain gene expression [9] |
| --- | --- | --- | --- | --- | --- | --- | --- | --- | --- | --- | --- | --- | --- | --- |
| CCCCCCCCCCCCCCCCCC(=O)O [stearic acid] | no statistically significant reduction | did not have a suppressive effect | did not have a suppressive effect | did not have | – | – | – | – | – | – | – | – | – | – |
| CCCCCCCC/C=C\CCCCCCCC(=O)O [oleic acid] | – | did not have a suppressive effect | did not have a suppressive effect | did not have | statistically significant reduction | – | – | – | – | – | – | – | – | – |
| CCCCCCCCCCCCCCCC(=O)O [palmitic acid] | – | – | – | – | – | statistically significant reduction | statistically significant reduction | statistically significant reduction | statistically significant increase | statistically significant reduction | statistically significant increase | statistically significant reduction | reduced markedly | statistically significant reduction |
